Like-named read-outs stand apart in the source and are kept apart here.
What was measured:
[1] = target: T1, farnesyl-protein transferase (FPTase) (Rattus norvegicus, UniProt Q02293+Q04631); test: Farnesyl-protein transferase inhibiting activity, scintillation proximity assay with 3H-FPP and biotin-lamin B peptide; type: biochemical; settings: read-out: IC50 values for FPTase Inhibition
T1 construct: a cerebrum obtained from white rat; from tissue; host or cells: rat cerebrum (male Sprague-Dawley, 100-150 g), homogenate, partially purified on Q Sepharose Fast Flow
Description: First, a cerebrum obtained from white rat(male Spraguo Dowley 100-150 g) was washed with physiological saline solution and homogenized. The homogenized solution was centrifuged and partially purified by using Q sepharose fast flow column to obtain farnesyl protein transferase(FPTase).
10 μl of a sample, 40 μl of FPTase obtained above, 10 μl of an assay buffer(50 mM Tris-HCl, pH 7.5, 25 mM MgCl2, 2 mM KCl, 5 mM DTT, 5 mM Na2 HPO4, 0.01% Triton X-100), 20 μl of diluted ^3 H-FPP and 20 μl of biotin-lamin B peptide were mixed together and the resulting mixture was reacted at room temperature for 30 minutes. 150 μl of SPA bead/stop reagent solution was added to the mixture and the enzymatic activity was determined by examining the extent of biotin lamin B peptide farneslyation, expressed by a unit of count per minute(CPM), with a liquid scintillation counter.

[2] = system: angiogenesis, chorioallantoic membrane (CAM); test: Angiogenesis suppressing activity, chorioallantoic membrane (CAM) assay; type: in vivo; settings: fertilized chicken egg, read-out: IC50 values for Angiogenesis Suppression
Description: Angiogenesis was determined in accordance with the chorioallantoic membrane(CAM) assay method of Kusaka et al. described in Biochem. Biophy. Res. Comm., 174, 1070(1991) by using a fertilized chicken egg.
A fertilized chicken egg(Pulmuwon co., Korea) was incubated at 37°-38° C. and a humidity of more than 90%. Here, 0 day-embryo means that the fertilized egg had been storaged at 18° C. for no more than 3-4 days since laying.
The pointed end of the fertilized egg was scratched with a knife, laid horizontally, the scratched site was punctured with a 5 ml syringe and 2 ml of albumin was extracted from the fertilized egg. The puncture hole was then sealed with a glass-tape. The fertilized egg, laid such that the sealed hole is located at the bottom, was incubated under the same condition described above.
The other end of the fertilized egg where the air sac is located, i.e., the end opposite to the hole site was opened, a window having a diameter of 2-3 cm was installed therein, the window was sealed with a glass-tape, and the incubation was resumed.
At this time, a chorioalletoic membrane(CAM) of 2-5 mm diameter develop. A arteminolide sample was dissolved in distilled water or ethanol, 10 μl of the sample solution was dropped on quartered Thermanox coverslip(Nunc, Co.,) and dried in a clean bench. The sealing glass-tape was removed, the treated Thermanox coverslip obtained above was laid on the CAM and then sealed with a glass-tape. All tools used in the above procedure were pre-sterilized with 70% ethanol.
The sealing glass-tape was removed. 1 ml of Intralipose(fat emulsion, Green Cross co., Korea) was taken with syringe, removed an air bobble therefrom and injected into an area below the CAM.
Angiogenesis suppressing activity was then calculated in accordance with the following equation: [formula]

Solubility = type: physicochemical
[3] = MeOH, acetone, chloroform, DMSO

Structure (SMILES)	IC50 [1] [µM]	Solubility (Solubility; [3])	Solubility (Solubility; hexane, H2O)	IC50 ([1]; listed as C) [µM]	IC50 ([1]; listed as E) [µM]	IC50 ([2]; Gallus gallus) [µM]	IC50 ([2]; listed as F) [µM]	IC50 ([2]; listed as C) [µM]	IC50 ([2]; listed as A) [µM]	IC50 ([2]; listed as E) [µM]
C=C1C(=O)OC2C1CCC(C)(O)C13C=CC(C)(C21)C1(C3)C(=O)OC2C3C(C)=CC(=O)C3=C(C)CC(OC(=O)C=C(C)C)C21 (stereo not drawn) [Arteminolide B]	0.4	soluble	insoluble			5.2				
C=C1C(=O)OC2C1CCC(C)(O)C13C=CC(C)(C21)C1(C3)C(=O)OC2C3C(C)=CC(=O)C3=C(C)CC(OC(=O)/C(C)=C\C)C21 (stereo not drawn) [Arteminolide C]		soluble	insoluble	0.74				0.5		
C=C1C(=O)OC2C1CCC(C)(O)C13C=CC(C)(C21)C1(C3)C(=O)OC2C3C(C)=CC(=O)C3=C(C)CC(OC(=O)CC(C)C)C21 (stereo not drawn) [Arteminolide A]	0.38								5.4	

Continued, in another order:

IC50 [1] [µM]	Solubility (Solubility; [3])	Solubility (Solubility; hexane, H2O)	IC50 ([1]; listed as C) [µM]	IC50 ([1]; listed as E) [µM]	Structure (SMILES)	IC50 ([2]; Gallus gallus) [µM]	IC50 ([2]; listed as F) [µM]	IC50 ([2]; listed as C) [µM]	IC50 ([2]; listed as A) [µM]	IC50 ([2]; listed as E) [µM]
0.63	soluble	insoluble			C=C1C(=O)OC2C1CCC(C)(O)C13C=CC(C)(C21)C1(C3)C(=O)OC2C3C(C)=CC(=O)C3=C(C)CC(OC(=O)/C(C)=C/C)C21 (stereo not drawn) [Arteminolide D]	6.2				
160	soluble	insoluble			C=C1C(=O)OC2C1CCC(C)(O)C13C=CC(C)(C21)C1(C3)C(=O)OC2C3C(C)=CC(=O)C3=C(C)CC(OC(=O)CC(C)C)C21 (stereo not drawn) [Arteminolide F]		24			
		insoluble		150	C=C1C(=O)OC2C1CCC(C)(O)C13C=CC(C)(C21)C1(C3)C(=O)OC2C3C(C)=CC(=O)C3=C(C)CC(OC(=O)/C(C)=C\C)C21 (stereo not drawn) [Arteminolide E]					20

— patent US5801254A, “Arteminolide derivatives and process for the manufacture thereof” (Korea Institute of Science and Technology, priority 1996, dated 1998)
